ChEMBL document CHEMBL5325488, “Discovery of SMD-3040 as a Potent and Selective SMARCA2 PROTAC Degrader with Strong in vivo Antitumor Activity” (J Med Chem, 2023)
pKd: −log10 of the molar value.

Experiments:
[1] = tested on: NCI-H838; assay: Antiproliferative activity against SMARCA4-deficient human NCI-H838 cells assessed as cell growth inhibition measured after 7 days by WST-8 assay; format: functional; details: NCI-H838, 168 h, time 7 day
[2] = tested on: A549; assay: Antiproliferative activity against SMARCA4-deficient human A549 cells assessed as cell growth inhibition by measuring maximal efficacy measured after 7 days by WST-8 assay relative to control; format: functional; details: time 7 day
[3] = tested on: SK-MEL-5; assay: Antiproliferative activity against SMARCA4-deficient human SK-MEL-5 cells assessed as cell growth inhibition measured after 7 days by WST-8 assay; format: functional; details: SK-MEL-5, 168 h, time 7 day
[4] = tested on: NCI-H647; assay: Antiproliferative activity against human NCI-H647 cells expressing wild-type SMARCA2 assessed as cell growth inhibition by measuring maximal efficacy measured after 7 days by WST-8 assay relative to control; format: functional; details: time 7 day
[5] = tested on: NCI-H1792; assay: Antiproliferative activity against human NCI-H1792 cells expressing wild-type SMARCA2 assessed as cell growth inhibition measured after 7 days by WST-8 assay; format: functional; details: NCI-H1792, 168 h, time 7 day
[6] = target: T1, von Hippel-Lindau disease tumor suppressor/SWI/SNF-related matrix-associated actin-dependent regulator of chromatin subfamily A member 4 (Homo sapiens, UniProt P51532+P40337); assay: PROTAC activity at VHL/SMARCA4 in human RKO cells assessed as induction of […] degradation incubated for 18 hrs by Western blotting analysis; format: cell-based
[7] = target: T2, von Hippel-Lindau disease tumor suppressor/SWI/SNF-related matrix-associated actin-dependent regulator of chromatin subfamily A member 2 (Homo sapiens, UniProt P51531+P40337); assay: PROTAC activity at VHL/C-terminal HiBiT fused SMARCA2 in human HeLa cells assessed as induction of SMARCA2 degradation by measuring maximal efficacy incubated for 24 hrs by Nano-Glo HiBiT analysis relative to control; format: cell-based
Target sequence in this assay (P40337 whole entry, looked up, the tested form may be a part): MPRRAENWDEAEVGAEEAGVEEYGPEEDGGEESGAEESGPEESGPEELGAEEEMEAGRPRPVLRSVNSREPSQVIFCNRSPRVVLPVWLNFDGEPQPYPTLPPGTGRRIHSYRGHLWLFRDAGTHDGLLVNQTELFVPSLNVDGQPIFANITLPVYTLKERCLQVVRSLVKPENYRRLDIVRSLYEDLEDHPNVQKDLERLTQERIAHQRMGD
Target sequence in this assay (P51531 whole entry, looked up, the tested form may be a part): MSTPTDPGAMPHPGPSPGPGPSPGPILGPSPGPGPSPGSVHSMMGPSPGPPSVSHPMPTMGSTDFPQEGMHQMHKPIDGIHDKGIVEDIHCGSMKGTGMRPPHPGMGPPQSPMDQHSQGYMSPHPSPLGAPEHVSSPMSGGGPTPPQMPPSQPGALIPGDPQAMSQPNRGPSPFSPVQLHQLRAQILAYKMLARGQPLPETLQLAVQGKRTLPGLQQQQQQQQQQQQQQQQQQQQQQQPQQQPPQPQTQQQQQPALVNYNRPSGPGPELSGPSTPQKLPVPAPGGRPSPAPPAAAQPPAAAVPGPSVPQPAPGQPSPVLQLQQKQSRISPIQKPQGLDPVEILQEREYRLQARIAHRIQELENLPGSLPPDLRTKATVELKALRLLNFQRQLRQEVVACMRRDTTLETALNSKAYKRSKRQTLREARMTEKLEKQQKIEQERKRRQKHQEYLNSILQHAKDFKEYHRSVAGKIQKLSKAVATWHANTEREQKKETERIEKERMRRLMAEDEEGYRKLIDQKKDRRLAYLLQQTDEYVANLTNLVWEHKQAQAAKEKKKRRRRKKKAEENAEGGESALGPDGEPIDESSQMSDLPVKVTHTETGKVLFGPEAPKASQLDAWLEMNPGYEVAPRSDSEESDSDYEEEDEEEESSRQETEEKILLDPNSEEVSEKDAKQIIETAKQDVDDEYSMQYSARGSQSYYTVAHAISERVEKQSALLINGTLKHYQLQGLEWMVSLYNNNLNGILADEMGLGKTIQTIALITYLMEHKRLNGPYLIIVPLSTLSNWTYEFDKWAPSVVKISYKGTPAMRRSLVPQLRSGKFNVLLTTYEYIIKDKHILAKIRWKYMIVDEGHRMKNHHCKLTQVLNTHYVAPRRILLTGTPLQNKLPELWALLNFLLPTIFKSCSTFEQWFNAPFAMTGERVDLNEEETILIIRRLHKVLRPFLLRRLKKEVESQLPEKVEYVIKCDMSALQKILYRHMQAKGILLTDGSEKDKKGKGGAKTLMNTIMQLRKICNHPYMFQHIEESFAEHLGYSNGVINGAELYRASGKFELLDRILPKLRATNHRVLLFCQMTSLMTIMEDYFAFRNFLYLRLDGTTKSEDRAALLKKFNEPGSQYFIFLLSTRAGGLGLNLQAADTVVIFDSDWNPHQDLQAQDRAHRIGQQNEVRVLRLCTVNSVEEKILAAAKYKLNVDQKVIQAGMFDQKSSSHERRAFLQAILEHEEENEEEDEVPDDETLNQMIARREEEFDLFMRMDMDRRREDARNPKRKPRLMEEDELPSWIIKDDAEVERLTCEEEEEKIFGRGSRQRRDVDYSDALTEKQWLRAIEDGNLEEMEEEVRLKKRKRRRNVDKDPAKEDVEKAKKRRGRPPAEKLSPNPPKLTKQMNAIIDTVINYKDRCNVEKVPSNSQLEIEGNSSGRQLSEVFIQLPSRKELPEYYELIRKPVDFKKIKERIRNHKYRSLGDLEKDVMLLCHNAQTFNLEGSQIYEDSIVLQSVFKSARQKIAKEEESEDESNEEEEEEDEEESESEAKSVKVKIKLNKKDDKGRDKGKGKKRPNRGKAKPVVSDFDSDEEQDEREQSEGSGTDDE

[8] = tested on: NCI-H1944; assay: Antiproliferative activity against SMARCA4-deficient human NCI-H1944 cells assessed as cell growth inhibition measured after 7 days by WST-8 assay; format: functional; details: NCI-H1944, 168 h, time 7 day
[9] = Antiproliferative activity against SMARCA4-deficient human NCI-H1568 cells assessed as cell growth inhibition by measuring maximal efficacy measured after 7 days by WST-8 assay relative to control; format: functional; details: time 7 day
[10] = tested on: NCI-H1299; assay: Antiproliferative activity against SMARCA4-deficient human NCI-H1299 cells assessed as cell growth inhibition measured after 7 days by WST-8 assay; format: functional; details: NCI-H1299, 168 h, time 7 day
[11] = tested on: A549; assay: Antiproliferative activity against SMARCA4-deficient human A549 cells assessed as cell growth inhibition measured after 7 days by WST-8 assay; format: functional; details: A549, 168 h, time 7 day
[12] = tested on: NCI-H647; assay: Antiproliferative activity against human NCI-H647 cells expressing wild-type SMARCA2 assessed as cell growth inhibition measured after 7 days by WST-8 assay; format: functional; details: NCI-H647, 168 h, time 7 day
[13] = tested on: NCI-H838; assay: Antiproliferative activity against SMARCA4-deficient human NCI-H838 cells assessed as cell growth inhibition by measuring maximal efficacy measured after 7 days by WST-8 assay relative to control; format: functional; details: time 7 day
[14] = target: T2, von Hippel-Lindau disease tumor suppressor/SWI/SNF-related matrix-associated actin-dependent regulator of chromatin subfamily A member 2; assay: PROTAC activity at VHL/C-terminal HiBiT fused SMARCA2 in human HeLa cells assessed as induction of SMARCA2 degradation at 0.000001 to 1 uM by Nano-Glo HiBiT analysis; format: cell-based; details: dose lower 1e-06 µM, dose upper 1.0 µM, time 6-48 hrs, TDE = time-dependent effect
Target sequence in this assay (P40337 whole entry, looked up, the tested form may be a part): as the sequence (P40337 whole entry, looked up, the tested form may be a part) above
Target sequence in this assay (P51531 whole entry, looked up, the tested form may be a part): as the sequence (P51531 whole entry, looked up, the tested form may be a part) above

[15] = tested on: SK-MEL-28; assay: Antiproliferative activity against human SK-MEL-28 cells expressing wild-type SMARCA2 assessed as cell growth inhibition by measuring maximal efficacy measured after 7 days by WST-8 assay relative to control; format: functional; details: time 7 day
[16] = tested on: NCI-H1793; assay: Antiproliferative activity against SMARCA4-deficient human NCI-H1793 cells assessed as cell growth inhibition measured after 7 days by WST-8 assay; format: functional; details: NCI-H1793, 168 h, time 7 day
[17] = target: T2, von Hippel-Lindau disease tumor suppressor/SWI/SNF-related matrix-associated actin-dependent regulator of chromatin subfamily A member 2; assay: PROTAC activity at VHL/SMARCA2 in human RKO cells assessed as induction of SMARCA2 degradation by measuring maximal efficacy incubated for 18 hrs by Western blotting analysis relative to control; format: cell-based
Target sequence in this assay (P40337 whole entry, looked up, the tested form may be a part): as the sequence (P40337 whole entry, looked up, the tested form may be a part) above
Target sequence in this assay (P51531 whole entry, looked up, the tested form may be a part): as the sequence (P51531 whole entry, looked up, the tested form may be a part) above

[18] = tested on: SK-MEL-28; assay: Antiproliferative activity against human SK-MEL-28 cells expressing wild-type SMARCA2 assessed as cell growth inhibition measured after 7 days by WST-8 assay; format: functional; details: SK-MEL-28, 168 h, time 7 day
[19] = target: T1, von Hippel-Lindau disease tumor suppressor/SWI/SNF-related matrix-associated actin-dependent regulator of chromatin subfamily A member 4; assay: PROTAC activity at VHL/C-terminal HiBiT fused SMARCA4 in human HeLa cells assessed as induction of SMARCA4 degradation incubated for 6 to 48 hrs by Nano-Glo HiBiT analysis; format: cell-based; details: dose lower 1e-05 µM, dose upper 1.0 µM, time 6-48 hrs
Target sequence in this assay (P40337 whole entry, looked up, the tested form may be a part): as the sequence (P40337 whole entry, looked up, the tested form may be a part) above
Target sequence in this assay (P51532 whole entry, looked up, the tested form may be a part): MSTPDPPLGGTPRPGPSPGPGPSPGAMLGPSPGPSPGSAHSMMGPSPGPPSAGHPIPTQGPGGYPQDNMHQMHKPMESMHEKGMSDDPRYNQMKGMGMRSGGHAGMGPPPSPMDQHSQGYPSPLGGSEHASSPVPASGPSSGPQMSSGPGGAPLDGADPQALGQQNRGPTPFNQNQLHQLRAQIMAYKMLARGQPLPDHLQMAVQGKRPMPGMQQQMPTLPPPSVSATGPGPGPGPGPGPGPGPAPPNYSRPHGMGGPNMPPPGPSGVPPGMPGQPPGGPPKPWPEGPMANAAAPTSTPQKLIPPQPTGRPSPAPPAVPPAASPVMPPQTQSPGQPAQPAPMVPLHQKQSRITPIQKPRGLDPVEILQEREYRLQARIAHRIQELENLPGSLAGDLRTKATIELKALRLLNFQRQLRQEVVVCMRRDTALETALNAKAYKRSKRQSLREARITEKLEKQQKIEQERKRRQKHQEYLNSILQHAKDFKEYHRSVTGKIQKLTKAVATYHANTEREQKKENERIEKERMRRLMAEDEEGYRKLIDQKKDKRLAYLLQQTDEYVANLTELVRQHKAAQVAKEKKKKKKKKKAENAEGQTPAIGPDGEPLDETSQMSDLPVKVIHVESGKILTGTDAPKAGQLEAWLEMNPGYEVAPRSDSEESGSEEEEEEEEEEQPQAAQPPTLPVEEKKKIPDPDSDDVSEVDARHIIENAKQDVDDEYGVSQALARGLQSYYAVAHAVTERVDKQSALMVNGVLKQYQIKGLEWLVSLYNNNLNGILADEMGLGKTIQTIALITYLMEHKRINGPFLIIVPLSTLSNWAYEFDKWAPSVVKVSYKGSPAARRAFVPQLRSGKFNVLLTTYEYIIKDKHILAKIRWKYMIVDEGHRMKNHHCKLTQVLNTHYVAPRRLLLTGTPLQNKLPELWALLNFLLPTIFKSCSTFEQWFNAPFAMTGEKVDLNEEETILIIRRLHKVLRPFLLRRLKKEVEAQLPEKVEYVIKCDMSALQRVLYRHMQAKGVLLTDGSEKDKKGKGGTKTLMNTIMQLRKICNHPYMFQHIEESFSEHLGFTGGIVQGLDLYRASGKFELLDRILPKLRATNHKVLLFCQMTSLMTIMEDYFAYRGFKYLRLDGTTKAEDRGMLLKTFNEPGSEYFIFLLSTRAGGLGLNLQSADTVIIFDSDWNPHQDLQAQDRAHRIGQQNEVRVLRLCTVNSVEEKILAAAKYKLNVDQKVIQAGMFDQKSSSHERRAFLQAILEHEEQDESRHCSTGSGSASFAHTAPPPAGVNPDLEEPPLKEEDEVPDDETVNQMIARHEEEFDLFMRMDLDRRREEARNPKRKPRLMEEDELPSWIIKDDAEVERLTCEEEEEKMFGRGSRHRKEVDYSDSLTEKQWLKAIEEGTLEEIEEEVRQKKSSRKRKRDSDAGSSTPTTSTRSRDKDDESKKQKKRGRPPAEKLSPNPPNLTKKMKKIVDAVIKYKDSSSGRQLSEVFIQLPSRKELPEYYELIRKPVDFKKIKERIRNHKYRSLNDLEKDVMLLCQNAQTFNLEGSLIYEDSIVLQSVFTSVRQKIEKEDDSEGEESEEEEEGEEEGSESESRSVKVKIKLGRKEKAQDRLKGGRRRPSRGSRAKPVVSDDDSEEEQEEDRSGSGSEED

[20] = tested on: NCI-H1299; assay: Antiproliferative activity against SMARCA4-deficient human NCI-H1299 cells assessed as cell growth inhibition by measuring maximal efficacy measured after 7 days by WST-8 assay relative to control; format: functional; details: time 7 day
[21] = target: T2, von Hippel-Lindau disease tumor suppressor/SWI/SNF-related matrix-associated actin-dependent regulator of chromatin subfamily A member 2; assay: PROTAC activity at VHL/C-terminal HiBiT fused SMARCA2 in human HeLa cells assessed as induction of SMARCA2 degradation incubated for 6 to 48 hrs by Nano-Glo HiBiT analysis; format: cell-based; details: dose lower 1e-06 µM, dose upper 1.0 µM, time 6-48 hrs
Target sequence in this assay (P40337 whole entry, looked up, the tested form may be a part): as the sequence (P40337 whole entry, looked up, the tested form may be a part) above
Target sequence in this assay (P51531 whole entry, looked up, the tested form may be a part): as the sequence (P51531 whole entry, looked up, the tested form may be a part) above

[22] = tested on: SK-MEL-5; assay: Antiproliferative activity against SMARCA4-deficient human SK-MEL-5 cells assessed as cell growth inhibition by measuring maximal efficacy measured after 7 days by WST-8 assay relative to control; format: functional; details: time 7 day
[23] = target: T2, von Hippel-Lindau disease tumor suppressor/SWI/SNF-related matrix-associated actin-dependent regulator of chromatin subfamily A member 2; assay: PROTAC activity at VHL/SMARCA2 in human RKO cells assessed as induction of SMARCA2 degradation incubated for 18 hrs by Western blotting analysis; format: cell-based
[24] = tested on: NCI-H1975; assay: Antiproliferative activity against human NCI-H1975 cells expressing wild-type SMARCA2 assessed as cell growth inhibition by measuring maximal efficacy measured after 7 days by WST-8 assay relative to control; format: functional; details: time 7 day
[25] = target: T1, von Hippel-Lindau disease tumor suppressor/SWI/SNF-related matrix-associated actin-dependent regulator of chromatin subfamily A member 4; assay: PROTAC activity at VHL/C-terminal HiBiT fused SMARCA4 in human HeLa cells assessed as induction of SMARCA4 degradation at 0.00001 to 1 uM by Nano-Glo HiBiT analysis; format: cell-based; details: dose lower 1e-05 µM, dose upper 1.0 µM, time 6-48 hrs, TDE = time-dependent effect
Target sequence in this assay (P40337 whole entry, looked up, the tested form may be a part): as the sequence (P40337 whole entry, looked up, the tested form may be a part) above
Target sequence in this assay (P51532 whole entry, looked up, the tested form may be a part): as the sequence (P51532 whole entry, looked up, the tested form may be a part) above

[26] = target: T1, von Hippel-Lindau disease tumor suppressor/SWI/SNF-related matrix-associated actin-dependent regulator of chromatin subfamily A member 4; assay: PROTAC activity at VHL/C-terminal HiBiT fused SMARCA4 in human HeLa cells assessed as induction of SMARCA4 degradation by measuring maximal efficacy incubated for 24 hrs by Nano-Glo HiBiT analysis relative to control; format: cell-based
Target sequence in this assay (P40337 whole entry, looked up, the tested form may be a part): as the sequence (P40337 whole entry, looked up, the tested form may be a part) above
Target sequence in this assay (P51532 whole entry, looked up, the tested form may be a part): as the sequence (P51532 whole entry, looked up, the tested form may be a part) above

[27] = tested on: NCI-H1693; assay: Antiproliferative activity against SMARCA4-deficient human NCI-H1693 cells assessed as cell growth inhibition by measuring maximal efficacy measured after 7 days by WST-8 assay relative to control; format: functional; details: time 7 day
[28] = tested on: NCI-H1975; assay: Antiproliferative activity against human NCI-H1975 cells expressing wild-type SMARCA2 assessed as cell growth inhibition measured after 7 days by WST-8 assay; format: functional; details: NCI-H1975, 168 h, time 7 day
[29] = tested on: NCI-H1792; assay: Antiproliferative activity against human NCI-H1792 cells expressing wild-type SMARCA2 assessed as cell growth inhibition by measuring maximal efficacy measured after 7 days by WST-8 assay relative to control; format: functional; details: time 7 day
[30] = tested on: NCI-H1693; assay: Antiproliferative activity against SMARCA4-deficient human NCI-H1693 cells assessed as cell growth inhibition measured after 7 days by WST-8 assay; format: functional; details: NCI-H1693, 168 h, time 7 day
[31] = target: T1, von Hippel-Lindau disease tumor suppressor/SWI/SNF-related matrix-associated actin-dependent regulator of chromatin subfamily A member 4; assay: PROTAC activity at VHL/SMARCA4 in human RKO cells assessed as induction of […] degradation by measuring maximal efficacy incubated for 18 hrs by Western blotting analysis relative to control; format: cell-based
Target sequence in this assay (P40337 whole entry, looked up, the tested form may be a part): as the sequence (P40337 whole entry, looked up, the tested form may be a part) above
Target sequence in this assay (P51532 whole entry, looked up, the tested form may be a part): as the sequence (P51532 whole entry, looked up, the tested form may be a part) above

[32] = target: T1, von Hippel-Lindau disease tumor suppressor/SWI/SNF-related matrix-associated actin-dependent regulator of chromatin subfamily A member 4; assay: PROTAC activity at VHL/C-terminal HiBiT fused SMARCA4 in human HeLa cells assessed as induction of SMARCA4 degradation incubated for 24 hrs by Nano-Glo HiBiT analysis; format: cell-based
[33] = Antiproliferative activity against SMARCA4-deficient human NCI-H1568 cells assessed as cell growth inhibition measured after 7 days by WST-8 assay; format: functional; details: NCI-H1568, 168 h, time 7 day
[34] = tested on: NCI-H1944; assay: Antiproliferative activity against SMARCA4-deficient human NCI-H1944 cells assessed as cell growth inhibition by measuring maximal efficacy measured after 7 days by WST-8 assay relative to control; format: functional; details: time 7 day
[35] = tested on: NCI-H1793; assay: Antiproliferative activity against SMARCA4-deficient human NCI-H1793 cells assessed as cell growth inhibition by measuring maximal efficacy measured after 7 days by WST-8 assay relative to control; format: functional; details: time 7 day
[36] = target: T2, von Hippel-Lindau disease tumor suppressor/SWI/SNF-related matrix-associated actin-dependent regulator of chromatin subfamily A member 2; assay: PROTAC activity at VHL/SMARCA2 in human MV4-11 cells assessed as induction of SMARCA2 degradation by measuring maximal efficacy incubated for 18 hrs by Western blotting analysis relative to control; format: cell-based
Target sequence in this assay (P40337 whole entry, looked up, the tested form may be a part): as the sequence (P40337 whole entry, looked up, the tested form may be a part) above
Target sequence in this assay (P51531 whole entry, looked up, the tested form may be a part): as the sequence (P51531 whole entry, looked up, the tested form may be a part) above

[37] = target: T1, von Hippel-Lindau disease tumor suppressor/SWI/SNF-related matrix-associated actin-dependent regulator of chromatin subfamily A member 4; assay: PROTAC activity at VHL/SMARCA4 in human MV4-11 cells assessed as induction of […] degradation by measuring maximal efficacy incubated for 18 hrs by Western blotting analysis relative to control; format: cell-based
Target sequence in this assay (P40337 whole entry, looked up, the tested form may be a part): as the sequence (P40337 whole entry, looked up, the tested form may be a part) above
Target sequence in this assay (P51532 whole entry, looked up, the tested form may be a part): as the sequence (P51532 whole entry, looked up, the tested form may be a part) above

[38] = target: SWI/SNF-related matrix-associated actin-dependent regulator of chromatin subfamily A member 4 (Homo sapiens, UniProt P51532); assay: Binding affinity to SMARCA4 (unknown origin)

`Cc1ncsc1-c1ccc([C@H](CC[C@H](C)CCN2CCC(c3ccc4c(c3)n(C3CCCC3)c3nc(=O)c5c(Br)cccc5n43)CC2)NC(=O)[C@@H]2C[C@@H](O)CN2C(=O)[C@@H](NC(=O)C2(F)CC2)C(C)(C)C)cc1` showed a GI50 [1] of 0.067 µM, an Imax [2] of 56% and a GI50 [3] of 0.0049 µM. It also gave an Imax [4] of 80%, a GI50 [5] of 0.135 µM and a DC50 [6] of 0.032 µM. For the same compound, the Emax [7] was 94%, the GI50 [8] was 0.013 µM and the Imax [9] was 90%. It also gave a GI50 [10] of 0.116 µM, a GI50 [11] of 0.03 µM and a GI50 [12] of 0.165 µM. The Imax [13] was 82%, the Activity [14] was “Tde” and the Imax [15] was 50%. The GI50 [16] was 0.0073 µM, the Emax [17] was 81% and the GI50 [18] was greater than 10 µM. The Activity [19] was “Dose-Dependent Effect”, the Imax [20] was 74% and the Activity [21] was “Dose-Dependent Effect”. It also gave an Imax [22] of 96%, a DC50 [23] of 0.001 µM and an Imax [24] of 63%. The Activity [25] was “Tde”, the Emax [26] was 92% and the Imax [27] was 86%. For the same compound, the GI50 [28] was 0.065 µM, the Imax [29] was 65% and the GI50 [30] was 0.0028 µM. It also gave an Emax [31] of 67%, a DC50 [32] of 0.009 µM and a GI50 [33] of 0.0028 µM. The Imax [34] was 82% and the Imax [35] was 68%.

With `Cc1ncsc1-c1ccc(CNC(=O)[C@@H]2C[C@@H](O)CN2C(=O)[C@@H](NC(=O)C2(F)CC2)C(C)(C)C)c(OCCOc2ccc(CN3CCN(c4cc(-c5ccccc5O)nnc4N)CC3)cc2)c1` the Emax [36] was greater than 95% and the Emax [37] was greater than 95%.

With `CN1CCN(/C=C2\CCn3c2nc(=O)c2c(Cl)cccc23)CC1` the pKd [38] was 6.38.
